One experiment deals with T1, IKKε (Homo sapiens, UniProt Q14164).
T1 sequence (Q14164 1-716): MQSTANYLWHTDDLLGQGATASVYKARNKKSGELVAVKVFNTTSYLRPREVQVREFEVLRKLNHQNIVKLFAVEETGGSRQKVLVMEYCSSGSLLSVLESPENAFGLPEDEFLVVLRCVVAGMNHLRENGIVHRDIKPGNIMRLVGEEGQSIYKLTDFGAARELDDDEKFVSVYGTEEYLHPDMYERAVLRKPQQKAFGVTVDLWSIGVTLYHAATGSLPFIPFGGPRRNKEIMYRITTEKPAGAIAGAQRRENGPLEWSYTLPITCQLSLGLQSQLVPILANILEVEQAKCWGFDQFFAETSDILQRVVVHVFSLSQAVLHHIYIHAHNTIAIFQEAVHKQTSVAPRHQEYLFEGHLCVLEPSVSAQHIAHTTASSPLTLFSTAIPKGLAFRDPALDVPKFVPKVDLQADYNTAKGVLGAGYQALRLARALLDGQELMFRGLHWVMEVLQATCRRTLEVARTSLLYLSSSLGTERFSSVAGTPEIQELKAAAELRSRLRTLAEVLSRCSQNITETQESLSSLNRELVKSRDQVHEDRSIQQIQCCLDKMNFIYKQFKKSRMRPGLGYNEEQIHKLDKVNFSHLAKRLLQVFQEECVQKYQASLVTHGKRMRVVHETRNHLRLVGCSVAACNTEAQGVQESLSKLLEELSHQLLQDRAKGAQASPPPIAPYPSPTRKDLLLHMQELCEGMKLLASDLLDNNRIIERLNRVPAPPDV
The experiment in a line: IKKε kinase test (384-well flashplate). The following applies: 1 nM IKKε, 10 μM ATP, 30° C., 120 min; read-out: IC50 [IKKepsilon]. In kind it is biochemical. The method, then: IKKε—Kinase Test (IKKepsilon)
The kinase assay is performed as 384-well flashplate assay.
1 nM IKKε, 800 nM biotinylated IκBα(19-42) peptide (biotin-C6-C6-[…]) and 10 μM ATP (with 0.3 μCi of ^33P-ATP/well) are incubated in a total volume of 50 μl (10 mM MOPS, 10 mM magnesium acetate, 0.1 mM EGTA, 1 mM dithiothreitol, 0.02% of Brij35, 0.1% of BSA, 0.1% of BioStab, pH 7.5) with or without test substance at 30° C. for 120 min. The reaction is stopped using 25 μl of 200 mM EDTA solution, filtered off with suction after 30 min at room temperature, and the wells are washed 3 times with 100 μl of 0.9% NaCl solution. The non-specific proportion of the kinase reaction (blank) is determined using 3 μM EMD 1126352 (BX-795). Radioactivity is measured in the Topcount. IC50 values are calculated using RS1.

A further experiment has as its target T2, PDK1 (Homo sapiens, UniProt O15530).
T2 construct: His6 (N)
T2 sequence (O15530 51-556 limits assumed): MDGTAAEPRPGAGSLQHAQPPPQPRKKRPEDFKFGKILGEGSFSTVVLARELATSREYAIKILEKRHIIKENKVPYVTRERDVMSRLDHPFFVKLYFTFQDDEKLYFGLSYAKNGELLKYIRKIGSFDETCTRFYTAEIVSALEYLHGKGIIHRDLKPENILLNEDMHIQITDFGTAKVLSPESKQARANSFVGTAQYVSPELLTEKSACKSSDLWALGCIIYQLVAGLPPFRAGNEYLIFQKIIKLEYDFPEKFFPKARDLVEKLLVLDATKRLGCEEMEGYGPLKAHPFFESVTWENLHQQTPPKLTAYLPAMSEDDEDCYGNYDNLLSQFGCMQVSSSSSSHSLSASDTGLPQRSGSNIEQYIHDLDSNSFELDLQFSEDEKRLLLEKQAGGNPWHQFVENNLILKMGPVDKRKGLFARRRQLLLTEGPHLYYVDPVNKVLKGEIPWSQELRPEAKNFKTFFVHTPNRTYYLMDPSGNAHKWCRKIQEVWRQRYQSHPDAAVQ
Nature of the experiment: Test for the inhibition of PDK1 (384-well flashplate, 33P-ATP). The following applies: His6-PDK1 3.4 nM, 4 μM ATP, 30° C., 60 min. The class given is biochemical. Here is the method: 4.0 Test for the Inhibition of PDK1
The experimental batches are carried out in a flashplate system with 384 wells/microtitration plate.
In each case, the PDK1 sample His6-PDK1(1-50)(3.4 nM), the PDK1 substrate biotin-bA-bA-[…] (400 nM), 4 μM ATP (with 0.2 μCi of ^33P-ATP/well) and the test substance in 50 μl of conventional experimental solution per well are incubated at 30° C. for 60 min. The test substances are employed in corresponding concentrations (if desired in a dilution series). The control is carried out without test substance. The reaction is stopped using standard methods and washed. The activity of the kinase is measured via the incorporated radioactivity in top count. In order to determine the non-specific kinase reaction (blank value), the experimental batches are carried out in the presence of 100 nM staurosporin.
The radioactivity (decompositions per minute) of the blank value (no use of test substance in the presence of staurosporin) is subtracted from all other radioactivity values. The controls (kinase activity without test substance) are set equal to 100 percent and all other radioactivity values (after subtracting the blank value) are expressed set in relation thereto (for example in % of the control).
IC50 values (50% inhibition) are determined with the aid of statistics programmes, such as, for example, RS1.

The test system of experiment [1] is PDK1 kinase activity (P-T308-PKB) in PC3 cells. The experiment in a line: Cellular testing of PDK1 kinase inhibitors (Luminex assay, P-T308-PKB in PC3 cells). In kind it is cell-based. The following applies: Homo sapiens, PC-3, 0.5 h, serum-free, 30 min with test substance. Here is the method:
Description of the Method for Cellular Testing of PDK1 Kinase Inhibitors
The cellular assay for determination of the PDK1 kinase activity is performed as Luminex assay in the 96-well format. PC3 cells are sown at 20,000 cells per well in 100 μl of medium (45% of […]/45% of Ham's F12/10% of FCS) and incubated under serum-free conditions on the following day for 30 min with serial dilution of the test substance (7 concentrations). The cells are subsequently lysed using 90 μl of lysis buffer (20 mM Tris/HCl pH 8.0, 150 mM NaCl, 1% of NP40, 10% of glycerol, 1% of phosphatase inhibitor I, 1% of phosphatase inhibitor II, 0.1% of protease inhibitor Cocktail III, 0.01% of benzonase) per well, and the lysates are separated off from insoluble cell constituents by means of centrifugation through a 96-well filter plate (0.65 μm). The lysates are incubated overnight at 4° C. with shaking with Luminex beads to which an anti-total PKB antibody has been coupled. Detection is carried out on the following day by addition of a P-T308-PKB antibody and a species-specific PE-labelled secondary antibody. The determination of P-T308-PKB is carried out by measurement in the Luminex100 instrument by determination of 100 events per cavity in a measurement time of 60 sec. As pharmacological blank, the signals obtained from cells which have been treated with 10 μM staurosporin are subtracted from all other batches. The control value used for maximum phosphorylation of PKB on T308 are the signals from cells which have been treated only with the solvent (0.3% of DMSO). The values of the batches treated with test substance are calculated from this as percent of control, and IC50 values are determined by means of RS1.

For orientation: IC50 means the midpoint of a concentration-inhibition curve.

Turning to `Cc1cccc(Cn2cc(-c3c[nH]c4ncc(-c5cnn(C)c5)cc34)nn2)c1` [Compound A7, 3-[1-(3-Methylbenzyl)-1H-1,2,3-triazol-4-yl]-5-(1-methyl-1H-pyrazol-4-yl)-1H-pyrrolo[2,3-b]pyridine], the IC50 was 0.0005 to 1 µM on IKKε, 0.0005 to 1 µM on PDK1 and 1 to 10 µM in experiment [1].

For `Cn1cc(-c2cnc3[nH]cc(-c4cn(Cc5ccncc5)nn4)c3c2)cn1` [Compound A9, 5-(1-Methyl-1H-pyrazol-4-yl)-3-(1-pyridin-4-ylmethyl-1H-1,2,3-triazol-4-yl)-1H-pyrrolo-[2,3-b]pyridine], the values for the IC50 (on IKKε; against PDK1; in experiment [1]) were 0.0005 to 1 µM, 0.0005 to 1 µM and 1 to 10 µM, respectively.

In the case of `Cn1cc(-c2cnc3[nH]cc(-c4cn(Cc5ccccc5F)nn4)c3c2)cn1` [Compound A17, 3-[1-(2-Fluorobenzyl)-1H-1,2,3-triazol-4-yl]-5-(1-methyl-1H-pyrazol-4-yl)-1H-pyrrolo-[2,3-b]pyridine], the IC50 (at IKKε; against PDK1; in experiment [1]) was 0.0005 to 1 µM throughout.

Consider `CC(c1ccccc1C(F)(F)F)n1cc(-c2c[nH]c3ncc(-c4cnn(C)c4)cc23)nn1` (stereo not drawn) [Compound A20, 5-(1-Methyl-1H-pyrazol-4-yl)-3-{1-[1-(2-trifluoromethylphenyl)ethyl]-1H-1,2,3-triazol-4-yl}-1H-pyrrolo[2,3-b]pyridine], for which the results for the IC50 (on IKKε; against PDK1; in experiment [1]) were 0.0005 to 1 µM, 0.0005 to 1 µM and 1 to 10 µM, respectively.

With `Cn1cc(-c2cnc3[nH]cc(-c4cn(Cc5cccc(F)c5F)nn4)c3c2)cn1` [Compound A25, 3-[1-(2,3-Difluorobenzyl)-1H-1,2,3-triazol-4-yl]-5-(1-methyl-1H-pyrazol-4-yl)-1H-pyrrolo-[2,3-b]pyridine], the IC50 (at IKKε; on PDK1; in experiment [1]) was 0.0005 to 1 µM in each case.

For `Cn1cc(-c2cnc3[nH]cc(-c4cn(Cc5ccc6ncccc6c5)nn4)c3c2)cn1` [Compound A29, 6-{4-[5-(1-Methyl-1H-pyrazol-4-yl)-1H-pyrrolo[2,3-b]pyridin-3-yl]-1,2,3-triazol-1-ylmethyl}quinoline], the IC50 fell in the range of 1 to 10 µM on IKKε, 0.0005 to 1 µM against PDK1 and 1 to 10 µM in experiment [1].

The values above are taken from US8541584B2, “3-(1,2,3-triazol-4-yl) pyrrolo [2,3-b] pyridine derivatives” (Merck Patent GmbH, priority 2009, dated 2013).
